Patent publication US6761922B2, “Sweetener compositions containing aspartyl dipeptide ester compounds” (Ajinomoto Co., Inc., priority 1999, dated 2004)
Like-named read-outs stand apart in the source and are kept apart here. Blank lines part the entries; values can stand above or below the compound they belong to. Where a SMILES comes first, the peptide text is derived from it.

Legend:
[1] = Measurement of the magnification of sweetness intensity in cola beverage (sensory evaluation against cola with sucrose); type: in vivo; settings: control cola beverage containing 10% sucrose
Source text: (§1) The sweetness intensity of the solution of derivative 2 was 8.75% according to the following equation: (10.0−8.33)×0.25+8.33=8.75. Therefore, the magnification of sweetness of derivative 2 was 5600 (=8.75/0.00155) times that of sucrose. According to the same experiment, the magnification of sweetness intensity of derivative 1 was 22600 times that of sucrose. Further, the magnification of sweetness intensity of other derivatives (3 to 9) can be determined in the same manner. And the magnification of sweetness intensity in a cola beverage can be also determined by the same method compared to the control solution of cola beverage containing 10% sucrose.
Incidentally, the composition of cola beverage is as follows.
Incidentally, as for the concentration of the references, the sucrose concentrations of previous (a) to (e) were used.

[2] = Measurement of the magnification of sweetness intensity in aqueous solution (sensory evaluation against sucrose solutions); type: in vivo; settings: for magnification of sweetness intensity, times that of sucrose: aqueous solution, PSE 10% concentration, 20 panelists
Procedure: [Method for Determining the Magnification of Sweetness Intensity]
An aqueous solution was prepared by diluting derivative 2 to be PSE 10% concentration (15.5 mg/1000 ml=10/6500 g/100 ml), assuming that the intensity of sweetness of derivative 2 was 6500 times that of sucrose. Separately, aqueous sucrose solutions having sucrose concentrations of (a)6.94%, (b)8.33%, (c)10%, (d)12%, and (e)14.4% were prepared. The sensory evaluation was performed by determining which sucrose solution was closest to the solution of derivative 2 in the sweetness intensity. The result of calculation of the average of points of 20 panelists was 2.25 point.
as §1

[3] = Magnification of sweetness intensity stated or used for calculating the sweetness of compositions; settings: for magnification of sweetness intensity of the derivative as stated for the formulation: value used as basis of calculation, vs sucrose
[4] = Solubility; type: physicochemical; settings: 25° C.
[5] = Rate of dissolving and dispersibility of granular products in water; type: physicochemical; settings: crude powder in hot water; insoluble coagulates formed
Procedure: *1: As for the rate of dissolving, the distilled water was poured in the 500 ml beaker, 1 g of sample was added to the beaker with gentle mixing by magnetic stirring, and the time of dissolving was measured.

[6] = value used as basis of calculation, vs sucrose; cited from earlier work
[7] = Time required to dissolve completely in 500 ml of water with stirring; type: physicochemical; settings: 0.0234 g of powder in 500 ml of water, 25° C., 200 rpm
Procedure: When 50 g of the suspension of the derivative (derivative content 0.0234 g) were added to 500 ml of water (25° C.) with stirring (200 rpm), and the time required to dissolve completely was measured, it took 50 seconds. When 0.0234 g of the powder of the derivative 1, as a reference product, were added to 500 ml of water (25° C.) with stirring (200 rpm) in the same way, and the time required to dissolve completely was measured, it took not less than 3 minutes.

[8] = Standing test of suspension at room temperature (precipitation); type: physicochemical; settings: 1.0 weight part in 70 weight parts of water, homogenized, 7 days
[9] = Sensory evaluation in coffee against 4% sucrose coffee, after production and after storage; type: in vivo; settings: 60 days at room temperature, judged from sweetness
Source text: And, the sweetener composition in the form of suspension was poured into the sealed container and stood still at room temperature for 60 days.

[10] = cited from earlier work; for sweetness intensity, times that of sucrose by weight: reported in prior publications

Structure (SMILES): COC(=O)[C@H](Cc1ccccc1)NC(=O)[C@H](CC(=O)O)NCCCc1ccc(OC)cc1O [Derivative 7, N-[N-[3-(2-hydroxy-4-methoxyphenyl)propyl]-L-α-aspartyl]-L-phenylalanine 1-methyl ester]
Magnification of sweetness intensity relative to sucrose, in cola beverage [1]: 10600 | Magnification of sweetness intensity relative to sucrose, in aqueous solution [2]: 11100

Structure (SMILES): COC(=O)[C@H](Cc1ccccc1)NC(=O)[C@H](CC(=O)O)NCCCc1ccc(O)c(C)c1 [Derivative 8, N-[N-[3-(3-methyl-4-hydroxyphenyl)propyl]-L-α-aspartyl]-L-phenylalanine 1-methyl ester]
Magnification of sweetness intensity relative to sucrose, in cola beverage [1]: 15800 | Magnification of sweetness intensity relative to sucrose, in aqueous solution [2]: 18200

Structure (SMILES): COC(=O)[C@H](Cc1ccccc1)NC(=O)[C@H](CC(=O)O)NCCC(C)(C)c1ccc(O)cc1 [Derivative 6, N-[N-[3-(4-hydroxyphenyl)-3-methylbutyl]-L-α-aspartyl]-L-phenylalanine 1-methyl ester]
Magnification of sweetness intensity relative to sucrose, in cola beverage [1]: 14000 | Magnification of sweetness intensity relative to sucrose, in aqueous solution [2]: 14900 | magnification of sweetness intensity of the derivative as stated for the formulation [3]: 14000 times

Structure (SMILES): COC(=O)[C@H](Cc1ccccc1)NC(=O)[C@H](CC(=O)O)NCCCc1ccc(O)cc1O [Derivative 9, N-[N-[3-(2,4-dihydroxyphenyl)propyl]-L-α-aspartyl]-L-phenylalanine 1-methyl ester]
Magnification of sweetness intensity relative to sucrose, in cola beverage [1]: 7500 | Magnification of sweetness intensity relative to sucrose, in aqueous solution [2]: 8000

solubility in water [4]: 0.009 g/100 ml | time without reaching complete dissolution [5]: > 5 min
Structure (SMILES): COC(=O)[C@H](Cc1ccccc1)NC(=O)[C@H](CC(=O)O)NCCCc1ccc(OC)cc1 [Derivative 2, N-[N-[3-(4-methoxyphenyl)propyl]-L-α-aspartyl]-L-phenylalanine 1-methyl ester]
Magnification of sweetness intensity relative to sucrose, in cola beverage [1]: 4900 | sweetness intensity of the solution (sucrose equivalent) ([2]; 15.5 mg/1000 ml aqueous solution): 8.75% | magnification of sweetness intensity, times that of sucrose [2]: 5600 times | Magnification of sweetness intensity relative to sucrose, in aqueous solution [2]: 5500 | magnification of sweetness intensity of the derivative as stated for the formulation [3]: 5000 times | Magnification of sweetness intensity (vs. sucrose) ([3]; value used for Example 9 suspension): 5000

Structure (SMILES): COC(=O)[C@H](Cc1ccccc1)NC(=O)[C@H](CC(=O)O)NCCC(C)(C)c1ccc(OC)c(O)c1 [Derivative 3, N-[N-[3-(3-hydroxy-4-methoxyphenyl)-3-methylbutyl]-L-α-aspartyl]-L-phenylalanine 1-methyl ester]
Magnification of sweetness intensity relative to sucrose, in cola beverage [1]: 37000 | Magnification of sweetness intensity relative to sucrose, in aqueous solution [2]: 42400

Structure (SMILES): COC(=O)[C@H](Cc1ccccc1)NC(=O)[C@H](CC(=O)O)NCCC(C)(C)c1ccc(OC)cc1 [Derivative 5, N-[N-[3-(4-methoxyphenyl)-3-methylbutyl]-L-α-aspartyl]-L-phenylalanine 1-methyl ester]
Magnification of sweetness intensity relative to sucrose, in cola beverage [1]: 8000 | Magnification of sweetness intensity relative to sucrose, in aqueous solution [2]: 8400

Structure (SMILES): OC[C@H]1O[C@@H](O[C@H]2[C@H](O)[C@@H](O)C(O)O[C@@H]2CO)[C@H](O)[C@@H](O)[C@H]1O (stereo partly shown) [lactose]
magnification of sweetness intensity of filler used for calculation [6]: 0.2

Structure (SMILES): OC[C@@H](O)[C@@H](O[C@H]1O[C@H](CO)[C@@H](O)[C@H](O)[C@H]1O)[C@H](O)[C@@H](O)CO [maltitole]
magnification of sweetness intensity of filler used for calculation [6]: 0.75

time required to dissolve completely [7]: not less than 3 minutes | solubility against isomerised sugar "Fujikraft" [4]: 0.035 g/100 ml | solubility in water [4]: 0.152 g/100 ml | stability of the derivative in the suspension [9]: not decomposed
Structure (SMILES): COC(=O)[C@H](Cc1ccccc1)NC(=O)[C@H](CC(=O)O)NCCCc1ccc(OC)c(O)c1 [Derivative 1, N-[N-[3-(3-hydroxy-4-methoxyphenyl)propyl]-L-α-aspartyl]-L-phenylalanine 1-methyl ester]
Magnification of sweetness intensity relative to sucrose, in cola beverage [1]: 22600 | magnification of sweetness intensity, times that of sucrose [2]: 22600 times | Magnification of sweetness intensity relative to sucrose, in aqueous solution [2]: 22600 | magnification of sweetness intensity at PSE 4% ([3]; at PSE 4%, was calculated as): 18500 times | magnification of sweetness intensity of the derivative as stated for the formulation [3]: 22600 times | precipitation on standing [8]: all suspended substances were precipitated

Structure (SMILES): COC(=O)[C@H](Cc1ccccc1)NC(=O)[C@H](CC(=O)O)NCCC(C)(C)C [Neotame]
sweetness intensity, times that of sucrose by weight [10]: 10000 times

Structure (SMILES): COC(=O)[C@H](Cc1ccccc1)NC(=O)[C@@H](N)CC(=O)O [Aspartame] (H-Asp-Phe-OMe)
magnification of sweetness intensity at PSE 0.5% ([3]; was calculated as): 360 times | Magnification of sweetness intensity (vs. sucrose) ([10]; reference sweetener in Example 9): 200 | sweetness intensity, times that of sucrose by weight [10]: 200 times

Structure (SMILES): OC[C@@H](O)[C@@H](O)CO [Erythritol]
magnification of sweetness intensity at PSE 0.5% ([3]; was calculated as): 0.75 times

Structure (SMILES): COC(=O)[C@H](Cc1ccccc1)NC(=O)[C@H](CC(=O)O)NCCC(C)(C)c1ccc(O)c(C)c1 [Derivative 4, N-[N-[3-(3-methyl-4-hydroxyphenyl)-3-methylbutyl]-L-α-aspartyl]-L-phenyl alanine 1-methyl ester]
Magnification of sweetness intensity relative to sucrose, in cola beverage [1]: 29600 | Magnification of sweetness intensity relative to sucrose, in aqueous solution [2]: 43500
